Experiments:
sputum excretion = assay: Sputum excretion action (phenol red excretion from trachea sections, method of Engler et al.); assay type: in vivo, male ICR mice; conditions: ambroxol 250 mg/kg oral single dose; relative to negative control; significant increase
Experimental: The hydroquinone derivative of the present invention was orally administered to 8 week old male ICR mice in a single dose, and the sputum excretion action was evaluated according to the method of Engler et al. (Engler H, Szelenyi I, J.Pharmacol. Moth. 11, 151-157, 1984).
Specifically, the test was conducted as follows. The test material was orally administered to the mice in the control group and the test groups, i.e., an aqueous solution of 2% gum arabic was administered to the mice in the negative control group, and 2,3,5-trimethylhydroquinone-1-hexyl ether (HTHQ), the test substance, was orally administered to the mice in the HTHQ-administered groups at 100 mg/kg body weight, 200 mg/kg body weight and 400 mg/kg body weight, respectively. Ambroxol (a product from Sigma-Aldrich) was orally administered to the mice in the ambroxol administered group at 250 mg/kg body weight. Here, ambroxol is a substance having expectoration action and has been selected as a positive control substance. 30 minutes after the oral administration of the test material, saline in which phenol red (a product from Sigma-Aldrich) was dissolved at a concentration of 0.05 g/mL was intraperitoneally administered at 15 mL/kg. Then, 30 minutes after the administration of phenol red, the mice were euthanized by inhalation of carbon dioxide, and the tracheae were extirpated. Given sites of the extirpated tracheae were cut into sections of fixed size to obtain trachea sections. The obtained trachea sections were added to centrifugation tubes, and 1 mL of saline was added there, and the mixture was sonicated using a ultrasonic washing machine for 15 minutes. After the centrifugation of 5 minutes at 10000 rpm, 0.5 mL of a upper layer solution was dispensed to the centrifugation tubes and 0.05 mL of 1 N sodium hydroxide was added to the tubes. After stirring with a vortex mixer, 0.2 mL of a sample was dispensed to a 96 well plate, and absorbance was measured at 546 nm using a micro plate reader (a product from BioTek Instruments, Inc). The amounts of phenol red excreted from the trachea sections of the mice in the control group and test groups were calculated by extrapolating the measured absorbance to the standard curve based on the absorbance of phenol red reference standard ([…], 2.3 and 1.2 ng/mL). The amounts of phenol red excreted from the trachea sections were substituted in the following formula to calculate the sputum excretion ability of the test material. The formula to calculate the sputum excretion ability is as follows: “sputum excretion ability(%)={(A/B)−1}×100” wherein A is the amounts of phenol red of the test material administered groups (an average) and B is the amount of phenol red of the negative control group (an average).

[1] = test system: Pulmonary Fibrosis Induced by Bleomycin; assay: Bronchoalveolar lavage (BAL) examination, cell numbers, pulmonary fibrosis induced by bleomycin; assay type: in vivo, male SD rats
Experimental: (§1) Bleomycin is used to produce disease-model animals of interstitial pneumonia. The bleomycin and 2,3,5-trimethylhydroquinone-1-hexyl ether (HTHQ) as the hydroquinone derivative represented by the general formula (1) described above of the present invention were simultaneously administered to male SD rats of 10 week old after birth to examine the effect of the action. The test groups consisted of the control group to which sterile saline was administered; test group 1 to which bleomycin (7.5 mg/kg body weight) alone was administered; test group 2 to which bleomycin (7.5 mg/kg body weight) and HTHQ (50 mg/kg body weight/day) were administered in combination; and test group 3 to which bleomycin (7.5 mg/kg body weight) and HTHQ (200 mg/kg body weight/day) were administered in combination.
(§2) In test groups 1 to 3, bleomycin was orally administered in a single dose. In test groups 2 and 3, 2,3,5-trimethylhydroquinone-1-hexyl ether (HTHQ) was daily orally administered for 10 or 20 days starting from 24 h after the administration of bleomycin. In test group 1, olive oil, which was used as a solvent of HTHQ, was daily orally administered at 10 mL/kg/day starting from 24 h after the administration of bleomycin. The number of animals in each group was 16. 8 animals of each group were sacrificed on days 10 and 20 after the administration of bleomycin and measurement of body weight, lung autopsy, histopathologic examination of lungs and bronchoalveolar lavage examination were conducted.
Bronchoalveolar lavage (BAL) examination was conducted on the rats in the control group and the test groups. When interstitial pneumonia developed, the infiltration of inflammatory cells occurs and thus the total cell number in BAL fluid increases. The total cell numbers on day 10 after the administration of bleomycin were as follows: 2×10^5 cells in the control group, 9×10^5 cells in test group 1 (the bleomycin-single administration group), 6.5×10^5 cells in test group 2 (the low-dose HTHQ-administered group, 50 mg/kg body weight), and 10.5×10^5 cells in test group 3 (the high-dose HTHQ-administered group, 200 mg/kg body weight), and thus the effect of HTHQ administration was not found on day 10 after the administration of bleomycin.
When interstitial pneumonia developed, the infiltration of alveolar macrophages to interstitial tissue occurs and thus the alveolar macrophage number in BAL fluid increases. The alveolar macrophage numbers on day 10 after the administration of bleomycin were as follows: 1.45×10^5 cells in the control group, 4.5×10^5 cells in test group 1 (the bleomycin-single administration group), 1.99×10^5 cells in test group 2 (the low-dose HTHQ-administered group), and 3.24×10^5 cells in test group 3 (the high-dose HTHQ-administered group), and thus the effect of HTHQ administration was not found on day 10 after the administration of bleomycin. However, on day 20 after the administration, while the alveolar macrophage number of the bleomycin-single administration group was 5.5×10^5 cells, the alveolar macrophage number of the low-dose HTHQ-administered group was 3×10^5 cells and the alveolar macrophage number of the high-dose HTHQ-administered group was decreased to 2×10^5 cells.
When interstitial pneumonia developed, the infiltration of inflammatory cells of neutrophils to interstitial tissue occurs and thus the neutrophil number in BAL fluid increases. The neutrophil numbers on day 10 after the administration of bleomycin were as follows: 1.04×10^4 cells in the control group, 2.28×10^5 cells in test group 1 (the bleomycin-single administration group), 1.44×10^5 cells in test group 2 (the low-dose HTHQ-administered group), and 5.83×10^5 cells in test group 3 (the high-dose HTHQ-administered group), and thus the effect of HTHQ was not found on day 10 after the administration of bleomycin. […]

[2] = test system: Pulmonary Fibrosis Induced by Bleomycin; assay: Gross pathology of lungs, pulmonary fibrosis induced by bleomycin; assay type: in vivo, male SD rats; conditions: Test group 1: bleomycin 7.5 mg/kg alone; day 20
Experimental: as §1
as §2, with “8 animals of each group were sacrificed on days 10 and 20 after the administration of bleomycin and measurement of body weight, lung autopsy, histopathologic examination of lungs and bronchoalveolar lavage examination were conducted.” left out

[3] = test system: Pulmonary Fibrosis Induced by Bleomycin; assay: Histopathologic examination of lungs, pulmonary fibrosis induced by bleomycin; assay type: in vivo, male SD rats; conditions: Test group 1: bleomycin 7.5 mg/kg alone
Experimental: as §1, §2
The main lung lesions observed in the rats in test group 1 (the bleomycin-single administration group) on day 10 after the administration were the peribronchial and peribronchiola enlargement of alveoli, the hyperplasia of the alveolar wall, the infiltration of monocytes and lymphocytes in alveolar walls and interstitial tissue, and the exudation of alveolar macrophage into alveolar spaces. These lesions were alleviated in rats in test groups 2 and 3 (the HTHQ-administered groups) compared to the tissue in test group 1.
The result of the histopathologic examination of lungs of the control group and the test groups on day 20 after the administration of bleomycin is shown in Table 1 below. “−” indicates “not found”, “+” indicates “mild”, “++” indicates “moderate”, and “+++” indicates “severe” in severity scores. In test group 1 (the bleomycin-single administration group), the hyperplasia and fibrosis of peribronchial and adjacent alveolar walls became remarkable compared to the tissue on day 10 after the administration and the morphology of alveolus almost disappeared due to the infiltration of lymphocytes and neutrophils. The alveolar macrophages infiltrated within alveolar spaces were buried in surrounding tissues.

[4] = test system: Pulmonary Fibrosis Induced by Bleomycin; assay: Body weight and relative weight of lungs, pulmonary fibrosis induced by bleomycin; assay type: in vivo, male SD rats
Experimental: as §1, §2
The body weight of the rats in the control group increased over time during the test period. […] The weight of the interstitial tissue of lungs tends to increase and the relative weight of lungs tends to rise when the tissue fibroses. […] Thus, it was expected that the degree of the progression of pulmonary fibrosis of the rats in test groups 2 and 3, to which HTHQ was administered, was less than the rats in test group 1.

[5] = Test group 1: bleomycin 7.5 mg/kg alone, day 10
[6] = bleomycin 7.5 mg/kg alone, day 20

With `Nc1c(Br)cc(Br)cc1CN[C@H]1CC[C@H](O)CC1` [ambroxol, Ambroxol, reference compound] the sputum excretion ability (sputum excretion) was 41.1%.
With bleomycin [reference compound] the “alveolar macrophage number in BAL fluid” value [1, 5] was 4.5×10^5 cells, the “lymphocyte number in BAL fluid” value [1, 5] was 2.72×10^5 cells and the “neutrophil number in BAL fluid” value [1, 5] was 2.28×10^5 cells. For the same compound, the “total cell number in BAL fluid” value [1, 5] was 9×10^5 cells, the “alveolar macrophage number in BAL fluid” value [1, 6] was 5.5×10^5 cells and the “lymphocyte number in BAL fluid” value [1, 6] was 2.09×10^5 cells. For the same compound, the “neutrophil number in BAL fluid” value [1, 6] was 4.97×10^5 cells, the “total cell number in BAL fluid” value [1, 6] was 12.8×10^5 cells and the “gross pathology of lungs” value [2] was “delomorphous nodules as well as many dark red and light red ecchymoses were observed”. The “histopathologic findings of lungs” value ([3]; day 10) was “pulmonary fibrosis has progressed”, the “Severity score: Alveolar space, Bleeding” value ([3]; day 20 after bleomycin) was “+” and the “Severity score: Alveolar space, Macrophage accumulation” value ([3]; day 20 after bleomycin) was “+++”. The “Severity score: Alveolar space, Protein exudation” value ([3]; day 20 after bleomycin) was “+++”, the “Severity score: Alveolar wall, Fibroblast accumulation” value ([3]; day 20 after bleomycin) was “+++” and the “Severity score: Alveolar wall, Fibrosis of interstitial tissue” value ([3]; day 20 after bleomycin) was “+++”. For the same compound, the “Severity score: Alveolar wall, Interstitial edema” value ([3]; day 20 after bleomycin) was “+”, the “Severity score: Alveolar wall, Mononuclear cell infiltration” value ([3]; day 20 after bleomycin) was “+++” and the “Severity score: Circumvascular region, Perivascular edema” value ([3]; day 20 after bleomycin) was “+”. The “Severity score: Circumvascular region, Plasma cell infiltration” value ([3]; day 20 after bleomycin) was “+”, the “Severity score: Peribronchial and peribronchiolar regions, Fibrosis of interstitial tissue” value ([3]; day 20 after bleomycin) was “+++” and the “Severity score: Peribronchial and peribronchiolar regions, Lymphoid follicle hyperplasia” value ([3]; day 20 after bleomycin) was “++”. For the same compound, the “Severity score: Type II alveolar epithelial cell, Adenomatous hyperplasia” value ([3]; day 20 after bleomycin) was “++”, the “Severity score: Type II alveolar epithelial cell, Atypia and dysplasia” value ([3]; day 20 after bleomycin) was “++” and the body weight ([4]; test groups 1 to 3, bleomycin 7.5 mg/kg single dose, during the test period) was “gradually decreased”. The “relative weight of lungs” value ([4]; test groups 1 to 3, bleomycin 7.5 mg/kg, compared to the control group, p<0.01) was “significantly increased”.
